# Earlier results in patent US9857354B2, “Compositions and methods for prognosis and treatment of neoplasm” (NOVAZOI THERANOSTICS, INC., priority 2014, dated 2018).
# Key:
# [1] = biological target: T1, KIFC1/microtubule (MT) binary complex (Homo sapiens, UniProt Q9BW19); conditions: ATP-competitive and MT-noncompetitive; read-out: Ki, inhibition of MT-stimulated KIFC1 enzymatic activity
# T1 sequence (Q9BW19 1-673): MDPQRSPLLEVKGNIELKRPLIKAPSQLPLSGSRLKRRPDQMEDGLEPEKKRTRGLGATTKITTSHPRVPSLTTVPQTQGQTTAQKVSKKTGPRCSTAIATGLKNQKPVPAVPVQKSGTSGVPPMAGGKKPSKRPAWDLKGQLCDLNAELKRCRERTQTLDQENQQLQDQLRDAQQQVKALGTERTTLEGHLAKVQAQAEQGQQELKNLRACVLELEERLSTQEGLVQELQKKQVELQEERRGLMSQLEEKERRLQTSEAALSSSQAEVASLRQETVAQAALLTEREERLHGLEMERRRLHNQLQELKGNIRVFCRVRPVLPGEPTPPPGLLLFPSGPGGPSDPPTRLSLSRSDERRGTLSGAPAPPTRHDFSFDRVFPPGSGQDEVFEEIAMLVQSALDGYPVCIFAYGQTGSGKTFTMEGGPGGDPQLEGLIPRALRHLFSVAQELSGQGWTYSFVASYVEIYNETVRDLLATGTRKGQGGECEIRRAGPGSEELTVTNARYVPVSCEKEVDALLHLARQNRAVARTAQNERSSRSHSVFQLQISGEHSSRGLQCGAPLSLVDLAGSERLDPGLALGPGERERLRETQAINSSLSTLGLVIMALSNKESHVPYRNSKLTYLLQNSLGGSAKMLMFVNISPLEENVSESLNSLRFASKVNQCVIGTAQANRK
# [2] = system: BT-549 breast cancer cells; conditions: BT-549 breast cancer cells with amplified centrosomes
structure (smiles),measurement,setting,value
CCCc1cc(C(=O)N[C@H](Cc2ccc(-c3cccc(OC(F)(F)F)c3)nc2)C(=O)N[C@@H]2CCNC2)sc1C [AZ82],Ki,[1],43 nM
same,centrosome declustering,[2],causes centrosome declustering
